In patent US5614510A, “Pharmaceutical composition with improved bioavailability of inositol phosphate” (priority 1992, dated 1997):
Where a name gives a salt, the structure may show the parent alone.

What was measured:
[1] = bioavailability of IP3 in pigs: blood concentration of IP3 and AUC after intravenous, intraduodenal or oral administration; type: in vivo
Procedure: The blood samples were assayed for the content of IP3 and these measurements were used for the calculation of the reference data as 100% of the substance is introduced into the blood stream after an intravenous injection.
Another five pigs were given the N(3-dodecanoyloxy)propyltrimethyl ammonium salt of IP3 as an intraduodenal dosing. The animals were treated with Atropin® and anaesthetized with Hypnodil®/Sedaperone® whereafter a laparotomy was carried out. Blood samples were collected at the time intervals mentioned above and the concentration of IP3 was determined in each sample. By calculating the area under the curve (AUC) from a graph where the concentration versus time is shown and comparing the obtained value with a similar calculation from the data after intravenous injection of the substance the bioavailability for the specific formulation is obtained.
Blood samples were collected at the same time intervals as above and the concentration of IP3 was determined. Following a similar procedure the AUC was determined.
(§1) Blood samples were collected and the concentration of IP3 were determined.
as §1

N-(hexyloxycarbonyl)methyl trimethyl ammonium inositol trisphosphate
Normalized AUC ([1]; pig, in vivo): 75% | bioavailability of the oral formulation ([1]; pig, in vivo): 75% | conc. IP3 ([1]; pig, in vivo, 0 min): 0 nM | concentration ([1]; pig, in vivo, 0.25 h): 18200 nM | concentration ([1]; pig, in vivo, 0.5 h): 29600 nM | concentration ([1]; pig, in vivo, 1 h): 20100 nM | concentration ([1]; pig, in vivo, 2 h): 12200 nM | concentration ([1]; pig, in vivo, 4 h): 4300 nM | concentration ([1]; pig, in vivo, 6 h): 1500 nM | concentration ([1]; pig, in vivo, 24 h): 100 nM | toxic effects on the intestinal barriers (intestinal barriers): no toxic effects on the intestinal barriers

O=P(O)(O)O[C@@H]1[C@H](OP(=O)(O)O)[C@H](O)[C@@H](O)[C@H](O)[C@H]1OP(=O)(O)O [sodium salt, pentasodium salt of D-myo-inositol-1.2.6-triphosphate]
Normalized AUC ([1]; pig, in vivo): 3% | Normalized AUC ([1]; pig, in vivo, iv): 100% | concentration at 0.25 h ([1]; pig, in vivo, iv): 71000 nM | concentration at 0.5 h ([1]; pig, in vivo, iv): 47500 nM | concentration at 1 h ([1]; pig, in vivo, iv): 24900 nM | concentration at 2 h ([1]; pig, in vivo, iv): 9300 nM | concentration at 4 h ([1]; pig, in vivo, iv): 3200 nM | concentration at 8 h ([1]; pig, in vivo, iv): 400 nM | concentration at 24 h ([1]; pig, in vivo, iv): 200 nM | conc. IP3 ([1]; pig, in vivo, iv, 0 min): 0 nM | concentration ([1]; pig, in vivo, iv, 2 h): 9300 nM | concentration at 0.25 h ([1]; pig, in vivo, po): 200 nM | concentration at 0.5 h ([1]; pig, in vivo, po): 500 nM | concentration at 1 h ([1]; pig, in vivo, po): 500 nM | concentration at 2 h ([1]; pig, in vivo, po): 200 nM | concentration at 4 h ([1]; pig, in vivo, po): 100 nM | concentration at 6 h ([1]; pig, in vivo, po): 100 nM | conc. IP3 ([1]; pig, in vivo, po, 0 min): 0 nM | concentration ([1]; pig, in vivo, po, 1 h): 500 nM | conc. IP3 ([1]; pig, in vivo, po, 480 min): 0 nM | conc. IP3 ([1]; pig, in vivo, po, 1440 min): 0 nM

N(3-dodecanoyloxy)propyltrimethylammonium inositol trisphosphate
conc. IP3 ([1]; pig blood, oral formulation given as intraduodenal dosing, 0 hrs): 0 nM | Normalized AUC ([1]; pig, in vivo): 46% | bioavailability of the oral formulation ([1]; pig, in vivo): 46% | concentration ([1]; pig, in vivo, 0.25 h): 6300 nM | concentration ([1]; pig, in vivo, 0.5 h): 9400 nM | concentration ([1]; pig, in vivo, 1 h): 10800 nM | concentration ([1]; pig, in vivo, 2 h): 7600 nM | concentration ([1]; pig, in vivo, 4 h): 2200 nM | concentration ([1]; pig, in vivo, 6 h): 1000 nM | concentration ([1]; pig, in vivo, 8 h): 800 nM | concentration ([1]; pig, in vivo, 24 h): 100 nM
